Tests used:
[1] = test system: guinea-pig ileum (histamine contractions); experiment: Antispasmodic activity in vitro, contractions caused by histamine; details: added 15 minutes before spasm-producing agent
Method: (§1) (4) The antispasmodic activity was measured in vitro, on guinea-pig ileum, the contractions of which were caused by histammne (Hist.), acetylcholine (Achol) or barium chloride (BaCl2). The tested products were added to perfusion bath 15 minutes before the spasm-producing agents.
(§2) The dose is given in micograms (μg) per ml of bath causing complete spasm inhibition.

[2] = test system: guinea-pig ileum (barium chloride contractions); experiment: Antispasmodic activity in vitro, contractions caused by barium chloride; details: added 15 minutes before spasm-producing agent
Method: as §1, §2

[3] = test system: guinea-pig ileum (acetylcholine contractions); experiment: Antispasmodic activity in vitro, contractions caused by acetylcholine; details: added 15 minutes before spasm-producing agent
Method: as §1, §2

[4] = test system: unanaesthetized, hypertension-suffering rat; experiment: Antihypertensive activity (systolic arterial pressure), oral; format: in vivo; details: 60 mg/kg, hypertensive rat, 3 hours
Outline: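 Conscious hypertensive rats given compound orally at 60 mg/kg; systolic arterial pressure measured every 30 min for 2 h pre-dose and 3 h post-dose. Scored O (no fall), + (<10 mm Hg), ++ (10–20 mm Hg), +++ (>20 mm Hg).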

femoral artery = experiment: Vasodilator activity, femoral artery (technique of perfused paw); format: in vivo; design: key: O: no action; +: slight activity; ++: effect equal to half the effect of papaverine; +++: effect equal to that of papaverine; ++++: effect higher than that of papaverine; details: intra-arterial, 30 mg/kg, anaesthetized dog, vs papaverine at same dose
Method: (3) The vasodilator activity was measured at the level of femoral artery on anaesthetized dog (technique of perfused paw). The tested substances were given intra-arterially at the rate of 30 mg/kg. Results are expressed with respect to papaverine tested at the same dose.
++: effect equal to half the effect of papaverine.
+++: effect equal to that of papaverine.
++++: effect higher than that of papaverine.

[5] = Acute toxicity, oral, LD50 (Litchfield and Wilcoxon); details: mouse, in vivo, fasted male mice, confidence limits p=95% in brackets
Method: (1) The acute toxicity was determined on fasted male mice. The tested substances were orally administered and LD50 values (lethal dose for 50% of animals) were calculated according to the method of Litchfield and Wilcoxon (J. Pharmacol. exp. Ther. 96, 94-113, 1949). These LD50 values are given in mg/kg and also, when possible, with their confidence limits for p=95%.

Compound | ANTISPASMODIC ACTIVITY HIST. (dose causing complete spasm inhibition) [1] [μg per ml] | ANTISPASMODIC ACTIVITY BaCl2 (dose causing complete spasm inhibition) [2] [μg per ml] | ANTISPASMODIC ACTIVITY ACHOL (dose causing complete spasm inhibition) [3] [μg per ml] | ANTIHYPERTENSIVE ACTIVITY [4] | VASODILATOR ACTIVITY (femoral artery) | LD50 [5] [mg/kg]
1-(5-indanyl)-2-(4-phenylbutylamino)-1-propanol [No 163] | 0.33 | 0.8 | 0.8 | +++ (reduction higher than 20 mm Hg) | ++++ | 
CCCCCCCCNC(C)C(O)c1ccc2c(c1)CCC(C)S2 (stereo not drawn) [No 4] |  | > 16.7 |  |  | +++ | 4000
CC(NCCCCCc1ccccc1)C(O)c1ccc2c(c1)CCCS2 (stereo not drawn) [No 8] | 0.8 | 0.8 | 1.7 |  | ++++ | 
CC1CCc2cc(C(O)C(C)NCCc3ccccc3)ccc2S1 (stereo not drawn) [No 9] | 3.3 | 0.8 | 3.3 |  | +++ | ~2750
CCCCCCCCNC(C)C(O)c1ccc2c(c1)CCCCS2 (stereo not drawn) [No 11] | 0.8 | 3.3 | 1.7 |  | +++ | 3300
CC(NCCc1ccccc1)C(O)c1ccc2c(c1)CCCS2 (stereo not drawn) [No 13] | 3.3 | 3.3 | 0.8 |  | ++ | 
CC(NCCc1ccccc1)C(O)c1ccc2c(c1)CCCCS2 (stereo not drawn) [No 14] | 1.7 | 1.7 | 3.3 |  | +++ | 
CC(NCC(c1ccccc1)c1ccccc1)C(O)c1ccc2c(c1)CCCS2 (stereo not drawn) [No 21] | 0.33 | 1.7 | 0.33 |  | +++ | 
COc1ccc(CCNC(C)C(O)c2ccc3c(c2)CCCS3)cc1OC (stereo not drawn) [No 22] | 3.3 | 8.3 | 8.3 |  |  | 3700
CC(NCCCCOc1ccccc1)C(O)c1ccc2c(c1)CCCS2 (stereo not drawn) [No 24] | 0.33 | 1.7 | 1.7 |  | +++ | > 4000
CC(NCCCCSc1ccccc1)C(O)c1ccc2c(c1)CCCS2 (stereo not drawn) [No 25] | 0.8 | 0.8 | 0.8 |  |  | > 4000
CC(C(O)c1ccc2c(c1)CCCS2)N1CCC(Cc2ccccc2)CC1 (stereo not drawn) [No 26] | 0.017 | 0.8 | 1.7 | +++ (reduction higher than 20 mm Hg) |  | 
CC(NC1CCCCCCC1)C(O)c1ccc2c(c1)CCCS2 (stereo not drawn) [No 27] | 1.7 | 1.7 | 1.7 |  | ++ | 
CC(NC1CCCCCCC1)C(O)c1ccc2c(c1)CCS2 (stereo not drawn) [No 28] | 0.8 | 1.7 | 1.7 |  | + | 580
CCCCCCCCNC(C)C(O)c1ccc2c(c1)CCC2 (stereo not drawn) [No 164] | 0.8 |  | 0.8 | ++ (reduction of 10 to 20 mm Hg) | +++ | 1750
CC(NCCCc1ccccc1)C(O)c1ccc2c(c1)CCC2 (stereo not drawn) [No 165] | 1.7 |  | 1.7 | +++ (reduction higher than 20 mm Hg) | +++ | 3800
CC(NCCCCc1ccc(Cl)cc1)C(O)c1ccc2c(c1)CCC2 (stereo not drawn) [No 167] | 0.8 |  | 0.8 | +++ (reduction higher than 20 mm Hg) | +++ | ~270
CC(NCCOc1ccccc1)C(O)c1ccc2c(c1)CCC2 (stereo not drawn) [No 168] | 3.3 |  | 3.3 | +++ (reduction higher than 20 mm Hg) | ++++ | > 2000
CC(NCCOc1ccc(Cl)cc1)C(O)c1ccc2c(c1)CCC2 (stereo not drawn) [No 169] | 3.3 |  | 0.8 | +++ (reduction higher than 20 mm Hg) | +++ | > 4000
CC(C(O)c1ccc2c(c1)CCC2)N1CCC(Cc2ccccc2)CC1 (stereo not drawn) [No 172] | 0.08 |  | 1.7 | +++ (reduction higher than 20 mm Hg) | ++++ | 1900

From patent US4638070A, “Heterocyclic amino-alcohol derivatives” (Continental Pharma, priority 1980, dated 1987)
